Data on ten molecules can be found in ChEMBL document CHEMBL4422610, “HDAC as onco target: Reviewing the synthetic approaches with SAR study of their inhibitors” (Eur J Med Chem, 2018).

In general, IC50 refers to the concentration that gives 50% inhibition.

The first experiment addresses T1, Protein deacetylase HDAC6 (Homo sapiens, UniProt Q9UBN7).
T1 sequence (Q9UBN7 whole entry): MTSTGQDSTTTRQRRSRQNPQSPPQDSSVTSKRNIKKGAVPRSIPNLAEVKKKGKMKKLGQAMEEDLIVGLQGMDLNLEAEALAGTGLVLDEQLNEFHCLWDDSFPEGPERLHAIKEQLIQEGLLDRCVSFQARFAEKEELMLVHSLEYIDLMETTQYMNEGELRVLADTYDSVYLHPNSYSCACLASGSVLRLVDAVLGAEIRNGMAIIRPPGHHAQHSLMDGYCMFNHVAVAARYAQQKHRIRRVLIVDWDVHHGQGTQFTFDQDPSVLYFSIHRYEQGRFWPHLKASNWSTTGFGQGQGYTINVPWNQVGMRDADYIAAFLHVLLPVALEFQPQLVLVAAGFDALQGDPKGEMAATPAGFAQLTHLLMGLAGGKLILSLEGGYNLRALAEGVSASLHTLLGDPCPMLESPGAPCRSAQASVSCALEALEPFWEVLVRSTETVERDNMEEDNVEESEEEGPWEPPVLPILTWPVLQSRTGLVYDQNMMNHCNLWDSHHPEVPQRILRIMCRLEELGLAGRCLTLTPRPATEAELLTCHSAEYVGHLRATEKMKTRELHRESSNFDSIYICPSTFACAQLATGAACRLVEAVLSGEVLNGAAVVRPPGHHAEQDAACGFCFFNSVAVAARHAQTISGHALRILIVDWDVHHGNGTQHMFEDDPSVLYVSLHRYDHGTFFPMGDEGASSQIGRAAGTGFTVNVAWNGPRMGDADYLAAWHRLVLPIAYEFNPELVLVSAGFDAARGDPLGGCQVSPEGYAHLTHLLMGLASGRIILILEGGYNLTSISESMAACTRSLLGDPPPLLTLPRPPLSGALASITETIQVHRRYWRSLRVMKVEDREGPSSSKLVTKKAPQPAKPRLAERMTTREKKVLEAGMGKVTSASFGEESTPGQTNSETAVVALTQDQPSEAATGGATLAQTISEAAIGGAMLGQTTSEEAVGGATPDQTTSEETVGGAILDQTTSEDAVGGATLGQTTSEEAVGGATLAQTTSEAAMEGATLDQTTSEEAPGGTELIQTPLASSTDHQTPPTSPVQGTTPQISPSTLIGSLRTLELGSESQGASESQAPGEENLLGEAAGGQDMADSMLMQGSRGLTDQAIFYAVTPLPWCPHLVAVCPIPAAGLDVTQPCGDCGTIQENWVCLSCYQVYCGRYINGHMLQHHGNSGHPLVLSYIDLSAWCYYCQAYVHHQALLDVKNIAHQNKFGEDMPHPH
In words: Inhibition of HDAC6 in human HeLa nuclear extract using Boc-Lys(acetyl)-AMC as substrate measured after 30 mins by fluorescence assay. Type of experiment: cell-free.
With `CNCCOc1no[n+]([O-])c1S(=O)(=O)c1ccccc1`, the IC50 came out at 160 nM.

In turn, `O=C(/C=C/c1ccc(C(=O)NCCCOc2no[n+]([O-])c2S(=O)(=O)c2ccccc2)cc1)NO` came in with an IC50 of 230 nM.

With `CC(CNC(=O)c1ccc(/C=C/C(=O)NO)cc1)Oc1no[n+]([O-])c1S(=O)(=O)c1ccccc1` (stereo unspecified), the IC50 came out at 280 nM.

For the next experiment, the target named is T2, Histone deacetylase 8 (Homo sapiens, UniProt Q9BY41).
T2 sequence (Q9BY41 whole entry): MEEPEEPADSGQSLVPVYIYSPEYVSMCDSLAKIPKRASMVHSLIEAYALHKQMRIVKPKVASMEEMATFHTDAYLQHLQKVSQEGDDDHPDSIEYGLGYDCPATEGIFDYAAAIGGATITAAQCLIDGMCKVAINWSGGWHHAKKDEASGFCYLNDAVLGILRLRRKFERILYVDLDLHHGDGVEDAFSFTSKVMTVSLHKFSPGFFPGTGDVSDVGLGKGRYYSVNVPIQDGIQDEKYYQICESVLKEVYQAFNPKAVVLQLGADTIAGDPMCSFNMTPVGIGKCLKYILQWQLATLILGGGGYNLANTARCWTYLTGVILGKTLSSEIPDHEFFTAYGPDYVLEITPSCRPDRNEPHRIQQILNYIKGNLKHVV
Kind of experiment: Inhibition of HDAC8 (unknown origin) expressed in Escherichia coli using BML-KI-178 as substrate preincubated up to 3 hrs and measured after 35 mins by fluorescence assay.
Molecule `O=C(CCCCCCNC(=O)c1c(-c2ccc(O)cc2)sc2cc(O)ccc12)NO` yielded an IC50 of 719 nM.

`O=C(CCCCCn1cc(-c2ccc(C(=O)c3c(-c4ccc(O)cc4)sc4cc(O)ccc34)cc2)nn1)NO` came in with an IC50 of 23500 nM.

`O=C(CCCCCCn1cc(-c2ccc(C(=O)c3c(-c4ccc(O)cc4)sc4cc(O)ccc34)cc2)nn1)NO` yielded an IC50 of 29900 nM.

`O=C(CCCCCCCNC(=O)c1c(-c2ccc(O)cc2)sc2cc(O)ccc12)NO` registered an IC50 of 400 nM.

The target of another experiment is Histone deacetylase 4 (Homo sapiens, UniProt P56524). Kind of experiment: Inhibition of HDAC4 (unknown origin).
Histone deacetylase 4, sequence (P56524 whole entry): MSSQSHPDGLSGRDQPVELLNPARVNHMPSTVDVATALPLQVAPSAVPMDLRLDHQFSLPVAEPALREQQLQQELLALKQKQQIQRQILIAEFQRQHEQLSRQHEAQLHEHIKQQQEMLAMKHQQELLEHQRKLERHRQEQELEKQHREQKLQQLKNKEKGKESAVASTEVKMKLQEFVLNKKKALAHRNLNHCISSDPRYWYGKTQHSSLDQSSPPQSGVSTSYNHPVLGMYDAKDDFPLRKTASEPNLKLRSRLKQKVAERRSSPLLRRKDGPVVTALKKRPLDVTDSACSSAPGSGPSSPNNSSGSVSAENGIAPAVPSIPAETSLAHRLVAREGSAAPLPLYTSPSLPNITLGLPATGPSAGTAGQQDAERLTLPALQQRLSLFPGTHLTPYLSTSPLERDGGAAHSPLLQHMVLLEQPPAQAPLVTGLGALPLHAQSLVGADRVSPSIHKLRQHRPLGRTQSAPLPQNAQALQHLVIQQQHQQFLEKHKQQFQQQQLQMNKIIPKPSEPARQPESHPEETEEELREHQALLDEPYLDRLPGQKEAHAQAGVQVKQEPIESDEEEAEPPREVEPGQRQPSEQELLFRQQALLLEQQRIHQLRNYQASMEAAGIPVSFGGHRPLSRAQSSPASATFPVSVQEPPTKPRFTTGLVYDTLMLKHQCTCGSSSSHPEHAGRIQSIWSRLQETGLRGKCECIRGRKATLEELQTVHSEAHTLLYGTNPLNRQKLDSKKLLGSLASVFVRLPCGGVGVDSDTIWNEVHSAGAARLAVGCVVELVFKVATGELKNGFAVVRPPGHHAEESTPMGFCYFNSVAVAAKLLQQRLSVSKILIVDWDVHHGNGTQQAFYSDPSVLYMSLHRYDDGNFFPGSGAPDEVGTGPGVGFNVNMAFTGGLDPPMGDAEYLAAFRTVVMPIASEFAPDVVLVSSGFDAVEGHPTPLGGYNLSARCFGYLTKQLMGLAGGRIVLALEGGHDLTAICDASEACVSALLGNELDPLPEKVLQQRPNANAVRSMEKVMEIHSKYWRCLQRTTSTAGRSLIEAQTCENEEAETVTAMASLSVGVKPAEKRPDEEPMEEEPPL
For `O=C(NC(CCCCCSSCCO)C(=O)Nc1cccc2cccnc12)OCc1ccccc1` (stereo unspecified), the IC50 was determined as 2 nM.

`COCCOCC(=O)SCCCCCC(NC(=O)OCc1ccccc1)C(=O)Nc1cccc2cccnc12` (stereo unspecified) came in with an IC50 of 18 nM.

In turn, `O=C(NC(CCCCCSSCCCCCC(NC(=O)OCc1ccccc1)C(=O)Nc1cccc2cccnc12)C(=O)Nc1cccc2cccnc12)OCc1ccccc1` (stereo unspecified) gave an IC50 of 3.4 nM.

The target of the next experiment is T3, Histone deacetylase 1 (Homo sapiens, UniProt Q13547). In words: Inhibition of recombinant human FLAG/His-tagged HDAC1 expressed in baculovirus expression system using Boc-l-Lys(Ac)-AMC as substrate preincubated up to 3 hrs and measured after 35 mins by fluorescence assay.
T3 sequence (Q13547 whole entry): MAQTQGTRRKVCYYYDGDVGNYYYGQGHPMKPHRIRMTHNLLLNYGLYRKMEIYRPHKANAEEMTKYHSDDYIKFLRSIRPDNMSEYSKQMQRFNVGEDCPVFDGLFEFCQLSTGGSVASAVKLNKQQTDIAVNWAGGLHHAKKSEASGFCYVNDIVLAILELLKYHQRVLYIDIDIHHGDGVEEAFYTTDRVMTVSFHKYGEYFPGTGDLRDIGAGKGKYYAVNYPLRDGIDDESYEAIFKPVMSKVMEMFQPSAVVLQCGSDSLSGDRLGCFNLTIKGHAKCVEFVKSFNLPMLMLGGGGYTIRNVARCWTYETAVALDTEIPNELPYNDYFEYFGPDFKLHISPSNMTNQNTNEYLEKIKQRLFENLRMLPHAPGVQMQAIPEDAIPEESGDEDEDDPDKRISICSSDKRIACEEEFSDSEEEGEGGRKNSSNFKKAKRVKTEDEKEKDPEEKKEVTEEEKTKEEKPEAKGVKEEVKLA
As to `O=C(CCCCCCNC(=O)c1c(-c2ccc(O)cc2)sc2cc(O)ccc12)NO`, the IC50 amounted to 596 nM.

Regarding `O=C(CCCCCn1cc(-c2ccc(C(=O)c3c(-c4ccc(O)cc4)sc4cc(O)ccc34)cc2)nn1)NO`, the IC50 amounted to 839 nM.

As for `O=C(CCCCCCn1cc(-c2ccc(C(=O)c3c(-c4ccc(O)cc4)sc4cc(O)ccc34)cc2)nn1)NO`, the IC50 came out at 1030 nM.

Regarding `O=C(CCCCCCCNC(=O)c1c(-c2ccc(O)cc2)sc2cc(O)ccc12)NO`, the IC50 came to 168 nM.

For another experiment, the target named is Histone deacetylase 3/Nuclear receptor corepressor 2 (HDAC3/NCoR2) (Homo sapiens, UniProt O15379). Kind of experiment: Inhibition of human recombinant full length C-terminal His-tagged HDAC3 (1 to 428 residues)/N-terminal GST-tagged NCOR2 (395 to 489 residues) expressed in insect cells using Boc-l-Lys(Ac)-AMC as substrate preincubated up to 3 hrs and measured after 35 mins by fluorescence assay.
Histone deacetylase 3/Nuclear receptor corepressor 2 (HDAC3/NCoR2), sequence (O15379 whole entry, the tested form may be a part): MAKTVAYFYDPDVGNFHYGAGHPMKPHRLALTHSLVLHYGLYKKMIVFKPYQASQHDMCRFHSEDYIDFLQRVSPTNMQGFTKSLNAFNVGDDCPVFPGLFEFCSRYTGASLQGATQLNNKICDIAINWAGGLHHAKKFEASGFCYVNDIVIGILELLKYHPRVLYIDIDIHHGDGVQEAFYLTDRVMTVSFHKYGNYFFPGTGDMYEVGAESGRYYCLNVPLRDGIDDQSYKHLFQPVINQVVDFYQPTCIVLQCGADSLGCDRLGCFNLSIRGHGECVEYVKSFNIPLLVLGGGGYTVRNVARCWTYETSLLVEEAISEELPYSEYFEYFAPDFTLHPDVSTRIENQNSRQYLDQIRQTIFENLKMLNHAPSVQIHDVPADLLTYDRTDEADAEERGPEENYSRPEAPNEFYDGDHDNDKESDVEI
Histone deacetylase 3/Nuclear receptor corepressor 2 (HDAC3/NCoR2), sequence (Q9Y618 whole entry, further chain, the tested form may be a part): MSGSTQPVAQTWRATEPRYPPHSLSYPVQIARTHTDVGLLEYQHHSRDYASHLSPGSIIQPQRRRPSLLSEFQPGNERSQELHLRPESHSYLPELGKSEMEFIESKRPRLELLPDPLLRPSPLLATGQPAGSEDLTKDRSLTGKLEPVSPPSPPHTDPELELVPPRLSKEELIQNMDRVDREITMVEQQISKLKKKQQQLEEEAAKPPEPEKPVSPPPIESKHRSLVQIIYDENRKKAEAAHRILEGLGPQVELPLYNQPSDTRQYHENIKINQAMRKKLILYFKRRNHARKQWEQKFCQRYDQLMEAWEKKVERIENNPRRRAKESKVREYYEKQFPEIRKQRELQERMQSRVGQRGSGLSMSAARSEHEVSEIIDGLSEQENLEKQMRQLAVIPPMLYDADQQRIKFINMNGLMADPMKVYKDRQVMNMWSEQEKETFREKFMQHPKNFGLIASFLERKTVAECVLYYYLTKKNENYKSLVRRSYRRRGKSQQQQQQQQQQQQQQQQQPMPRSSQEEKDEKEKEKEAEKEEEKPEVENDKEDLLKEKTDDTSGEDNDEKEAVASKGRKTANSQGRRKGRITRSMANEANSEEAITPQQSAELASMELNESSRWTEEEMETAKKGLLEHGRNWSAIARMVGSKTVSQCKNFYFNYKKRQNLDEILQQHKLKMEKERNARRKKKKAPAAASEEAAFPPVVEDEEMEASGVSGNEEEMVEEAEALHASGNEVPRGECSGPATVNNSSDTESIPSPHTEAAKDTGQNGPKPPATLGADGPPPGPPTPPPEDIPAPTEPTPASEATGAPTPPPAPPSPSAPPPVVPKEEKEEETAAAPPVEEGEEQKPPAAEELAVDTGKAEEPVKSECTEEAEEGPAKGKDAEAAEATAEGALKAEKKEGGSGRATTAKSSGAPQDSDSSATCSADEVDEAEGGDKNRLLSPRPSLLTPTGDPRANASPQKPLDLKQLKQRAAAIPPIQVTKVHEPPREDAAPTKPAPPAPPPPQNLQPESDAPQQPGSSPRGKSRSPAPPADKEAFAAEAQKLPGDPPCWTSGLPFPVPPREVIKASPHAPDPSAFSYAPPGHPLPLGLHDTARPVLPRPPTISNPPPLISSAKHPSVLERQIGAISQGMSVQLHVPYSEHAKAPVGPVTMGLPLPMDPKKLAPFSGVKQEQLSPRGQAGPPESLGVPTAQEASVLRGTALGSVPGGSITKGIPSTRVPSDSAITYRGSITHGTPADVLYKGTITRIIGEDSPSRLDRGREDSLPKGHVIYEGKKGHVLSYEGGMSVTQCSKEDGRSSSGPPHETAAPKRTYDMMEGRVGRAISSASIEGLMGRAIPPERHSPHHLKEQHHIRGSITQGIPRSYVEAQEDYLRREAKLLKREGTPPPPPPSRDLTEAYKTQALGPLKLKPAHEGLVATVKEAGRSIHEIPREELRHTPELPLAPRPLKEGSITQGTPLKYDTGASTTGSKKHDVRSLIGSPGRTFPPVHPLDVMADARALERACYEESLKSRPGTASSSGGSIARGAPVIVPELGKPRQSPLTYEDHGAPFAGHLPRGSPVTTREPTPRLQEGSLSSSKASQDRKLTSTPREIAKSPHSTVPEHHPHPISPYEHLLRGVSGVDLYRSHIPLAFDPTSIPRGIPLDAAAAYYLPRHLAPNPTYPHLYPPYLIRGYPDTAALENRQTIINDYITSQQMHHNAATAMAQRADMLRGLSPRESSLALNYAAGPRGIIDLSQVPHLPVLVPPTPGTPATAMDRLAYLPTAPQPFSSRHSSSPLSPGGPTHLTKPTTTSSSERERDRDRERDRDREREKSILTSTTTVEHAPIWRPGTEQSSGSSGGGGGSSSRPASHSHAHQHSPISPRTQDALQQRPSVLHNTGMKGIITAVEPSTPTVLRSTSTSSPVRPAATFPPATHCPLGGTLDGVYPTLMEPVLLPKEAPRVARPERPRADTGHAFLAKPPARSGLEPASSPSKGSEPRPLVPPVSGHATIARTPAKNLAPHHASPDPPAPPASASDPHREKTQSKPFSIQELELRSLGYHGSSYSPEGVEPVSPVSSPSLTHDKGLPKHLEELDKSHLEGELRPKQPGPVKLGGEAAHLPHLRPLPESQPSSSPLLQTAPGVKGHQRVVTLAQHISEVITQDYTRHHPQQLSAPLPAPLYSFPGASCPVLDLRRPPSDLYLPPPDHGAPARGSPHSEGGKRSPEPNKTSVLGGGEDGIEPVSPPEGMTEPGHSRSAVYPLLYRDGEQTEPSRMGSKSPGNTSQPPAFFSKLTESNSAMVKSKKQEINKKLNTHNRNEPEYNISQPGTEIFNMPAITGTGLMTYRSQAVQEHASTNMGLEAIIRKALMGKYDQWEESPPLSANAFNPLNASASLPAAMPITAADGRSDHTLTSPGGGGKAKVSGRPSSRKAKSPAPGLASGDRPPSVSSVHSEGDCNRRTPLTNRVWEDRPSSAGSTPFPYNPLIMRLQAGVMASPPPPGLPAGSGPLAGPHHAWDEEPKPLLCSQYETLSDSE
Turning to `O=C(CCCCCCNC(=O)c1c(-c2ccc(O)cc2)sc2cc(O)ccc12)NO`, the IC50 turned out to be 214 nM.

In the case of `O=C(CCCCCn1cc(-c2ccc(C(=O)c3c(-c4ccc(O)cc4)sc4cc(O)ccc34)cc2)nn1)NO`, the IC50 turned out to be 5740 nM.

As to `O=C(CCCCCCn1cc(-c2ccc(C(=O)c3c(-c4ccc(O)cc4)sc4cc(O)ccc34)cc2)nn1)NO`, the IC50 was determined as 748 nM.

Take `O=C(CCCCCCCNC(=O)c1c(-c2ccc(O)cc2)sc2cc(O)ccc12)NO`: the IC50 came out at 128 nM.

The target of a further experiment is T2, Histone deacetylase 8. In words: Inhibition of HDAC8 in human HeLa nuclear extract using Boc-Lys(acetyl)-AMC as substrate measured after 30 mins by fluorescence assay. In kind it is cell-free.
As for `CNCCOc1no[n+]([O-])c1S(=O)(=O)c1ccccc1`, inhibition was half-maximal at 260 nM (IC50).

`O=C(/C=C/c1ccc(C(=O)NCCCOc2no[n+]([O-])c2S(=O)(=O)c2ccccc2)cc1)NO` gave an IC50 of 460 nM.

In turn, `CC(CNC(=O)c1ccc(/C=C/C(=O)NO)cc1)Oc1no[n+]([O-])c1S(=O)(=O)c1ccccc1` (stereo unspecified) displayed an IC50 of 420 nM.

Another experiment deals with T3, Histone deacetylase 1. Kind of experiment: Inhibition of HDAC1 (unknown origin).
`O=C(NC(CCCCCSSCCO)C(=O)Nc1cccc2cccnc12)OCc1ccccc1` (stereo unspecified) yielded an IC50 of 4.9 nM.

As for `COCCOCC(=O)SCCCCCC(NC(=O)OCc1ccccc1)C(=O)Nc1cccc2cccnc12` (stereo unspecified), half-maximal inhibition (IC50) was put at 19 nM.

As for `O=C(NC(CCCCCSSCCCCCC(NC(=O)OCc1ccccc1)C(=O)Nc1cccc2cccnc12)C(=O)Nc1cccc2cccnc12)OCc1ccccc1` (stereo unspecified), half-maximal inhibition (IC50) was put at 8.2 nM.

The target in another experiment is Histone deacetylase 2 (Homo sapiens, UniProt Q92769).
Histone deacetylase 2, sequence (Q92769 whole entry): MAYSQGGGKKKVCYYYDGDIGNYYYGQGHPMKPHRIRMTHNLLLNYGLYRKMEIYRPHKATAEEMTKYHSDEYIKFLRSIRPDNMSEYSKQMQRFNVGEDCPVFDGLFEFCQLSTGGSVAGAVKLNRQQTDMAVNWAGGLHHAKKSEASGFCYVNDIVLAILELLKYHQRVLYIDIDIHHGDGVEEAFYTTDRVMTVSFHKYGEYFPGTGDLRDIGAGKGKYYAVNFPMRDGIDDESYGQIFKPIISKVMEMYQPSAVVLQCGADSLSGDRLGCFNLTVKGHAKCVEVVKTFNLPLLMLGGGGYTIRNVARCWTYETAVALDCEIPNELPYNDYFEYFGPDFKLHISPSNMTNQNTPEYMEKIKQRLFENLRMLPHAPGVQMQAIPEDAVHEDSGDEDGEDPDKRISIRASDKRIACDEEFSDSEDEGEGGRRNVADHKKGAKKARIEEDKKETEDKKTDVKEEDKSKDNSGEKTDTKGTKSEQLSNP
Regarding `O=C(CCCCCCNC(=O)c1c(-c2ccc(O)cc2)sc2cc(O)ccc12)NO`, the IC50 was 2440 nM.

`O=C(CCCCCn1cc(-c2ccc(C(=O)c3c(-c4ccc(O)cc4)sc4cc(O)ccc34)cc2)nn1)NO` registered an IC50 of 19200 nM.

With `O=C(CCCCCCn1cc(-c2ccc(C(=O)c3c(-c4ccc(O)cc4)sc4cc(O)ccc34)cc2)nn1)NO`, the IC50 worked out at 1820 nM.

Turning to `O=C(CCCCCCCNC(=O)c1c(-c2ccc(O)cc2)sc2cc(O)ccc12)NO`, the IC50 stood at 665 nM.

The next experiment addresses T1, Protein deacetylase HDAC6. Kind of experiment: Inhibition of HDAC6 (unknown origin).
`O=C(NC(CCCCCSSCCO)C(=O)Nc1cccc2cccnc12)OCc1ccccc1` (stereo unspecified): 3.2 nM corresponded to half-maximal inhibition (IC50).

`COCCOCC(=O)SCCCCCC(NC(=O)OCc1ccccc1)C(=O)Nc1cccc2cccnc12` (stereo unspecified) yielded an IC50 of 29 nM.

On to `O=C(NC(CCCCCSSCCCCCC(NC(=O)OCc1ccccc1)C(=O)Nc1cccc2cccnc12)C(=O)Nc1cccc2cccnc12)OCc1ccccc1` (stereo unspecified), for which the midpoint of inhibition, the IC50, lay at 7.5 nM.
